Assays:
[1] = tested on: PBMC infected with EBV (B95-8); assay: EBV transformation efficiency (EBV-induced LCL outgrowth following PBMC infection); type: cell-based, human; details: for increase of EBV-mediated transformation efficiency: relative to DMSO (set to 1), LCL positive wells at six weeks post infection
Method: FIGS. 3A and 3B are graphical plots showing the inhibition of ATM and Chk2 kinases increased EBV transformation efficiency. […] The percentages of wells positive for LCLs at six weeks post infection were plotted relative to the amount of B95-8 virus used per well. The efficiency of transformation was determined by the amount of virus necessary to induce 63% positive wells as indicated by a Poisson's distribution. This value was set to 1 for the DMSO treated infections. The difference between DMSO and 5 μM ATMi treated infections was ˜30-fold increased efficiency in the presence of 5 μM ATMi. In FIG. 3B similar experiments were performed using DMSO (diamond), 2 μM Chk2i II (square), or 5 μM Chk2i II (triangle).
Methods of infecting B cells with EBV are known to those of skill in the art. In some embodiments B cells can be infected with EBV as disclosed in the Examples below. In some embodiments primary human peripheral blood mononuclear cells (PBMCs) can be infected with the EBV strain B95-8 with dilutions starting from a multiplicity of infection such that all B cells express the EBV latent gene expression program (approximately 100 particles/cell) through a dilution where no LCLs grow out. Culturing of the EBV-infected cells in RPMI 1640, 10% FCS, antibiotics, and in the presence of cyclosporine to suppress T cell activity, allows for the outgrowth of LCLs at approximately 1-5% efficiency (transformant/infected cell) within 5 weeks. Scoring of LCL outgrowth can be performed using techniques and analytical equipment as is know to those of skill in the art. By way of example and not limitation, scoring of LCL outgrowth can be performed using a Cellomics Vti Array Scan instrument (ThermoFisher Scientific, Waltham, Mass., United States of America) following Calcein-AM live cell fluorescent staining, which allows for an unbiased readout of LCL outgrowth. […]
Likewise, the downstream ATM target, Chk2, was evaluated for its ability to inhibition EBV-mediated proliferation of B cells. […]

[2] = tested on: CD19+ B cells of CFSE-stained PBMC; assay: CFSE/CD19 B cell proliferation after EBV infection of PBMC; type: cell-based, human; details: for B cell proliferation in the absence of EBV: 5 μM, no EBV, six days post treatment; for B-cell proliferation (CD19+/CFSElo cells of total PBMCs): EBV infection in presence of 1, 2, 5, 10 μM inhibitor, 14 days post infection
Text: FIGS. 4A, 4B and 4C show inhibition of ATM or Chk2 increased the proliferation of B cells following EBV infection. FIG. 4A is a dot plot of EBV-mediated proliferation following infection of CFSE-stained PBMC, detected by FACS using CD19-PE staining of B cells and CFSE to monitor cell divisions, at 2 and 6 days post infection. At day 2 post infection there was little proliferation, while by day 6 there was clear B cell proliferation induced by the virus. FIG. 4B is a histogram illustrating the effect of CFSE-stained PBMC infected with EBV in the presence of increasing amounts of ATMi or Chk2i (0.1% DMSO, 1 μM, 2 μM, 5 μM, and 10 μM). The percentage of CD19+/CFSElo cells of total PBMCs at 14 days post infection are plotted. The data shown are the average values from two different normal donors with error bars reflecting the standard error. […] FIG. 4C includes dot plots of the proliferation of CFSE-stained PBMC treated with DMSO, 5 μM ATMi, 5 μM Chk21, or infected with EBV. Six days post treatment/infection cells were stained with CD19-PE antibody and proliferation of B cells was assessed. […] The difference in relative B cell proliferation at day six between FIGS. 4A and 4C was due to normal donor variation.
To further characterize the ATM- and Chk2-dependent block to EBV-mediated transformation, B cell proliferation early after infection was analyzed. PBMC were infected and B cell proliferation was followed over time using the fluorescent dye CFSE and CD19 staining of B cells. CFSE staining assays proliferation as its fluorescence is halved in daughter cells. PBMC were stained with the cell permeable dye carboxyfluorescein succinimidyl ester (CFSE). This dye enters the cytoplasm and is cleaved to fluoresce immediately by intracellular esterases. The dye is maintained in cells at a concentration that divides by half with each cell division. Thus, each two-fold reduction of CFSE fluorescence readout by flow cytometry correlates with one cycle of proliferation. CFSE-labeled PBMC were infected with EBV and B cell proliferation was monitored by CD19-PE or APC labeling cells at different days after infection. Flow cytometry was used to analyze the CD19 and CFSE levels in gated live cells (by forward versus side scatter). The percentage of CD19+ cells that have proliferated (CFSElo) relative to total PBMC cell numbers were plotted to indicate a relative proliferation index in panel B of FIG. 4. Using the CD19 marker and CFSE the proliferation of B cells during the early stages of transformation were specifically followed (FIG. 4A).
The above experiments were followed with washout and time of addition experiments using either ATM or Chk2 inhibitor. EBV-infected B cells were determined to be sensitive to the inhibitors between 4 and 8 days after infection. […]

[3] = tested on: Chk1 and over 30 other serine/threonine kinases; details: Arienti et al., 2005; cited from earlier work
[4] = tested on: IgG+ memory B cells infected with EBV B95-8; assay: Outgrowth of EBV-infected IgG+ memory B cells (positive wells at 4 weeks); type: cell-based, human; details: EBV B95-8 MOI 5, CpG 2.5 μg/mL, Chk2i 5 μM, 1,000 and 300 cells per well
Text: This Example pertains to the evaluation of whether inhibition of the DDR, in particular Chk2, is capable of increasing the efficiency of EBV transformation of memory B cells and whether the frequency of antibody secreting cells will increase. As a positive control, CpG 2006 TLR9 agonist was included either alone or together with Chk21. The CpG employed was CpG 2006 (Hartmann and Krieg, The Journal of Immunology, 2000, 164: 944-952.). The Chk2i employed was Chk2i II (Arienti et al., 2005 J. Med Chem 48:1873-1875).
Normal donor peripheral blood mononuclear cells (PBMC) were sorted to >95% pure IgG+ memory B cells using a scheme of positive selection for CD19 and CD27 and negative selection of IgM, IgD, and IgA. Cells were then infected with EBV B95-8 strain at an MOI of 5 and either DMSO, CpG (2.5 μg/mL), Chk2i (5 μM), or CpG +Chk21. Cells were seeded in 96-well plates with 50,000 lethally irradiated J774A.1 cells at different amounts. […] Wells were analyzed at 4 weeks for outgrowth and positive wells are plotted as a percentage for each condition. […] These were measured by IgG-specific ELISA.

[5] = tested on: memory B cells from chronic HIV-1-infected patients; assay: Frequency of IgG positive cell clones of EBV transformed memory B cells; type: cell-based, human; details: EBV transformation in presence vs absence of Chk2i II
Text: FIG. 13 is a scatter plot of the frequency of IgG positive cell clones of EBV transformed memory B cells from chronic HIV-1-infected patients in the presence or absence of Chk2i II. An increase in the frequency of IgG positive cell clones in the presence of Chk2i II was observed.
Identification of a HIV-Specific Neutralizing Antibody Following EBV Transformation of Memory B Cells from a Patient Chronically Infected with HIV in the Presence of an Inhibitor of the DNA Damage Response Using the methods of the presently disclosed subject matter, memory B cells from a chronic HIV-1-infected patient were EBV transformed. An increase in the frequency of IgG positive cell clones in the presence of Chk2i II was observed (FIG. 13). It was then determined whether these antibodies would specifically recognize HIV glycoproteins and whether they had biological (e.g. neutralizing) activity. Several potentially HIV-1 neutralizing antibodies were identified during initial screening of the cell culture supernatants. One of these was cloned into a hetero-hybridoma cell line and the IgG mAb was purified (SMB2-2). The mAb bound to HIV-1 gp120 and gp140 proteins (FIG. 14) and captured HIV-1 virions (FIG. 15) and neutralized infection of HIV-1 strains SF162 and MN in vitro (FIG. 16). In preliminary experiments, SMB2-2 neutralized infection of HIV-1 strains SF162 and MN in vitro with an IC50˜10 μg/mL. […]

[6] = tested on: CD19+ B cells; assay: B cell number after mitogen stimulation (flow cytometry count); type: cell-based, human; details: 5 μM Chk2i II vs DMSO, different time points
Method: FIG. 11 is bar graph showing that Chk2 […] the total B cell number following CpG treatment or EBV infection. PBMC were stimulated with CpG 2006 (2.5 μg/mL) or infected with EBV (B95-8, MOI 5). CD19+ B cells were assayed 7 days after treatment of infection using flow cytometry. The total number of viable CD19+ B cells is plotted.
FIG. 12 is a histogram showing that Chk2 inhibition increased B cell number following CpG or CpG system stimulation. Cells were assayed at different time points after stimulation. Circles are CpG treated samples and squares are CpG system treated samples. Open symbols are DMSO-treated and closed symbols are Chk21-treated.
Inhibition of the DDR increased B Cell proliferation in response to mitogens This Example pertains to inhibition of the DDR signaling pathway as a means to increase B cell mitogen induced proliferation. In FIG. 11 inhibition of Chk2 increased the number of B cells proliferating following either CpG DNA treatment or EBV infection as B cell mitogens. […] Total B cell number refers to CD19+ cells gated for viability using forward and side scatter and normalized to polystyrene beads.
The proliferation of cells in response to a combination of mitogenic signals was also assayed in the presence of a DNA damage response inhibitor. […] Cells were counted at different time points using the assay described in Example 10. […]

Row | Structure (SMILES) | increase of EBV-mediated transformation efficiency ([1]; 2 μM inhibitor) | increase of EBV-mediated transformation efficiency ([1]; 5 μM inhibitor) [fold] | B cell proliferation in the absence of EBV [2] | B-cell proliferation (CD19+/CFSElo cells of total PBMCs) [2] | specificity over Chk1 and over 30 other serine/threonine kinases [3] | outgrowth of memory B cells (positive wells) [4] | frequency of IgG positive cell clones [5] | EBV transformation efficiency (in words) ([1]; 2 μM and 5 μM vs DMSO) | B cell number following CpG stimulation [6] | B cell number following CpG system stimulation ([6]; CpG DNA, anti-Ig, IL-2, IL-10)
1 | O=c1cc(-c2cccc3c2Sc2ccccc2S3)oc(N2CCOCC2)c1 [ATMi] | approximately 3 fold | ~30 | No effect | dose dependent increase |  |  |  |  |  | 
2 | CC(=O)c1ccc2c(c1)C=C(c1ccc(Oc3ccc(Cl)cc3)cc1)C2 [Chk2i II] |  |  | No effect | dose dependent increase | exquisite specificity | increased the ability of B cells to grow out | increase | dramatic and dose-dependent increase | increased | increased

Reference: patent US20110236393A1, “MONOCLONAL ANTIBODY PRODUCTION IN B CELLS AND USES THEROF” (Duke University, priority 2008, published 2011)
